According to article PMC2879341 (Chembiochem : a European journal of chemical biology, 2009):

Target: T1, GilR (Streptomyces griseoflavus, UniProt Q7X2G7)
T1 sequence (Q7X2G7 1-498): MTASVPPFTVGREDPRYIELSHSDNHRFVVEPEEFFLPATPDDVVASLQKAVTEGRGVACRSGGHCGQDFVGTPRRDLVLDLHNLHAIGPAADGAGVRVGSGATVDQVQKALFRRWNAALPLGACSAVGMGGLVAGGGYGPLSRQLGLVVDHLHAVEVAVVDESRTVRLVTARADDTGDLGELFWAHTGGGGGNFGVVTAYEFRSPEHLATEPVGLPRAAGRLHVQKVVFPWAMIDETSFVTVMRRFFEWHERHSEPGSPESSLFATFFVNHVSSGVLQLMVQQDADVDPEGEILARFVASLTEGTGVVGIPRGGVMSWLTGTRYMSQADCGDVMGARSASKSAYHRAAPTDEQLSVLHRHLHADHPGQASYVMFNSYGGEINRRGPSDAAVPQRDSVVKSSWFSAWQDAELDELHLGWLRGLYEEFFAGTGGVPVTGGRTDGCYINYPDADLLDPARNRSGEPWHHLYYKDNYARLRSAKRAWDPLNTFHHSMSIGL
Assay: UV spectrum of purified protein
Format: binding
Settings: covalent

For Cc1cc2nc3c(=O)[nH]c(=O)nc-3n(C[C@H](O)[C@H](O)[C@H](O)COP(=O)(O)OP(=O)(O)OC[C@H]3O[C@@H](n4cnc5c(N)ncnc54)[C@H](O)[C@@H]3O)c2cc1C [FAD], the “UV spectrum of purified protein; further analysis in supplement” value was “FAD in fact is covalently bound to the enzyme (see the Supporting Information)”.
